Measurements: patent US20240190841A1, “MODULATORS OF BCL6 PROTEOLYSIS AND ASSOCIATED METHODS OF USE” (Arvinas Operations, Inc., priority 2022, published 2024)

Target: T1, BCL6 (Homo sapiens, UniProt P41182)
T1 construct: endogenous in cells; host or cells: T47D breast cancer epithelial cells
Test: Immunofluorescence high content imaging of BCL6 degradation in T47D cells
Format: cell-based
Conditions: T47D breast cancer epithelial cells, 3 days incubation
Description: Immunofluorescence Protocol for High Content Imaging of BCL6
T47D cells were seeded in 100 μl volume of RPMI11640-10% FBS in a 96-well black/clear bottom plates for adherent lines (Corning #3904).
Day 1. T47D breast cancer epithelial cells were seeded at a density so that confluence is ˜70-90% at endpoint. Cells were seeded at 7K/0.1 mL/well the morning prior to the addition of exemplary bifunctional degradation compounds.
Day 2. Prepare an 11 point 3-fold serial dilution of exemplary bifunctional compound in DMSO and aliquot an appropriate volume to cell growth media to generate a 2× final concentration of exemplary bifunctional compound. Add an equal volume (0.1 ml) of 2× exemplary bifunctional compound/media mix to previously plated cells, for a final top concentration in aqueous cell growth media of 0.1 or 1 μM. Incubate for 3 days at 37° C., 5% CO2.
Day 5 Immunofluorescence. Discard cell media. Wash wells with 200 μl of room temperature phosphate-buffered saline (PBS). Prepared 4% paraformaldehyde (PFA) from 16% PFA (Electron Microscopy Sciences #15710) using 1×PBS. Fifty μL of 4% PF was added to each well and incubate for 15 minutes at room temperature to fix the cells. The PFA was aspirated and the cells washed twice with PBS (200 μL)).
Prepared 0.1% Triton X-100 in PBS using 10% triton X-100 stock. The cells were permeabilized by adding 100 μL of the 0.1% Triton X-100 in PBS to each well to permeabilize cells and incubating at room temperature for 15 minutes. Cells were washed twice with PBS.
Prepared 3% BSA/PBS (from Thermofisher #37515 Blocker BSA in TBS, 10%), and 100 μL was added to each well. The cells were incubated for at least 1 hour at room temperature.
Prepared 1% BSA/PBS using Blocker BSA/PBS, and the 3% BSA/PBS removed from the wells.
For no primary antibody controls, 50 μL 1% BSA/PBS was added.
Primary antibody (BCL6 Rb Ab, CST-14895, Cell Signaling) was diluted 1:300 in 1% BSA/PBS using Blocker BSA/PBS.
Fifty μl of primary antibody added to all remaining wells (i.e., all wells other than the primary antibody controls) and the cells were incubated overnight at 4° C. with slow orbital movement.
Day 6. Contents of the wells was removed and the cells washed four times with 200 μL PBS. 1% BSA/PBS was prepared using Blocker BSA in PBS.
Diluted secondary antibody goat anti-Rb IgG Alexa-488 1:1000, and cell mask-Alexa-647 1:3000 in 1% BSA/PBS in the same mix. Add 50 μL to each well and incubate at room temperature for 1 hour in the dark.
Cells were washed three times with 200 μL PBS, and then incubated for 10 minutes with 100 μL Hoechst dye at 1 μg/mL (20 mM stock) to stain cell nuclei. Wells were then washed with 200 μl PBS, and 100 μL of PBS was added to each well and the plate covered plate with a plastic opaque cover. Plates were stored at […] and covered in aluminum foil until imaged.
Plates were equilibrated to room temperature prior to reading. The bottom of the plate was wiped with 70% isopropanol immediately prior to imaging.
Imaging: • 10×, 4 fields/well, include Top hat smoothing in the analysis protocol.
Supplies/Reagents: • 16% paraformaldehyde: Electron Microscopy Sciences #15710 • Hoechst: Thermofisher #62249 • Blocker BSA in PBS, 10%: Thermofisher #37515 • Blocker BSA in TBS, 10%: Thermofisher #37520 • Goat anti-rabbit or mouse AlexaFluor-488: Thermofisher #A11008 • Cell mask deep red AlexaFluor-647: Thermofisher #C10046 • Wash buffer, PBS: 20×PBS, Thermofisher

Structure (SMILES)	DC50 [µM]	Dmax [%]
CNC(=O)COc1cc2cc(Nc3nc(N4CCC(O[C@H]5C[C@H](N6CCN(c7ccc8c(n7)n(C)c(=O)n8C7CCC(=O)NC7=O)CC6)C5)CC4)ncc3Cl)ccc2n(C(C)C)c1=O (stereo partly shown) [Compound 6, 2-({6-[(5-chloro-2-{4-[(1r,3r)-3-{4-[1-(2,6-dioxopiperidin-3-yl)-3-methyl-2-oxo-1H,2H,3H-imidazo[4,5-b]pyridin-5-yl]piperazin-1-yl}cyclobutoxy]piperidin-1-yl}pyrimidin-4-yl)amino]-2-oxo-1-(propan-2-yl)-1,2-dihydroquinolin-3-yl}oxy)-N-methylacetamide]	< 0.01	≥ 70
CNC(=O)COc1cc2cc(Nc3nc(N4CCC(O[C@H]5C[C@H](N6CCN(c7cc(C)c8c(c7)CN(C7CCC(=O)NC7=O)C8=O)CC6)C5)CC4)ncc3Cl)ccc2n(C(C)C)c1=O (stereo partly shown) [Compound 36, 2-({6-[(5-chloro-2-{4-[(1r,3r)-3-{4-[2-(2,6-dioxopiperidin-3-yl)-7-methyl-1-oxo-3H-isoindol-5-yl]piperazin-1-yl}cyclobutoxy]piperidin-1-yl}pyrimidin-4-yl)amino]-1-isopropyl-2-oxoquinolin-3-yl}oxy)-N-methylacetamide]	< 0.01	50 to 70
CNC(=O)COc1cc2cc(Nc3nc(N4CCC(O[C@H]5C[C@H](N6CCN(c7ccc8c(c7Cl)[C@H](C)N([C@@H]7CCC(=O)NC7=O)C8=O)[C@H](C)C6)C5)CC4)ncc3Cl)ccc2n(C(C)C)c1=O (single isomer, unassigned) [Compound 35]	< 0.01	50 to 70
CNC(=O)COc1cc2cc(Nc3nc(N4CCC(O[C@H]5C[C@H](N6CCN(c7ccc8c(cnn8C8CCC(=O)NC8=O)c7)CC6)C5)CC4)ncc3Cl)ccc2n(C(C)C)c1=O (stereo partly shown) [Compound 21, 2-({6-[(5-chloro-2-{4-[(1r,3r)-3-{4-[1-(2,6-dioxopiperidin-3-yl)-1H-indazol-5-yl]piperazin-1-yl}cyclobutoxy]piperidin-1-yl}pyrimidin-4-yl)amino]-2-oxo-1-(propan-2-yl)-1,2-dihydroquinolin-3-yl}oxy)-N-methylacetamide]	< 0.01	≥ 70
CNC(=O)COc1cc2cc(Nc3nc(N4CCC(O[C@H]5C[C@H](N6CCN(c7ccc8c(c7Cl)[C@@H](C)N([C@H]7CCC(=O)NC7=O)C8=O)[C@H](C)C6)C5)CC4)ncc3Cl)ccc2n(C(C)C)c1=O (single isomer, unassigned) [Compound 32]	< 0.01	≥ 70
CNC(=O)COc1cc2cc(Nc3nc(N4CCC(O[C@H]5C[C@H](N6CCN(c7ccc8c(c7C)n(C)c(=O)n8C7CCC(=O)NC7=O)CC6)C5)CC4)ncc3Cl)ccc2n(C(C)C)c1=O (stereo partly shown) [Compound 19, 2-({6-[(5-chloro-2-{4-[(1r,3r)-3-{4-[1-(2,6-dioxopiperidin-3-yl)-3,4-dimethyl-2-oxo-2,3-dihydro-1H-1,3-benzodiazol-5-yl]piperazin-1-yl}cyclobutoxy]piperidin-1-yl}pyrimidin-4-yl)amino]-2-oxo-1-(propan-2-yl)-1,2-dihydroquinolin-3-yl}oxy)-N-methylacetamide]	< 0.01	≥ 70
CNC(=O)COc1cc2cc(Nc3nc(N4CCC(O[C@H]5C[C@H](N6CCN(c7ccc8c(c7)n(C(C)C)c(=O)n8C7CCC(=O)NC7=O)CC6)C5)CC4)ncc3Cl)ccc2n(C(C)C)c1=O (stereo partly shown) [Compound 12, 2-({6-[(5-chloro-2-{4-[(1r,3r)-3-{4-[1-(2,6-dioxopiperidin-3-yl)-2-oxo-3-(propan-2-yl)-2,3-dihydro-1H-1,3-benzodiazol-5-yl]piperazin-1-yl}cyclobutoxy]piperidin-1-yl}pyrimidin-4-yl)amino]-2-oxo-1-(propan-2-yl)-1,2-dihydroquinolin-3-yl}oxy)-N-methylacetamide]	< 0.01	≥ 70
CNC(=O)COc1cc2cc(Nc3nc(N4CCC(O[C@H]5C[C@H](N6CCN(c7ccc8c(c7)n(C)c(=O)n8C7CCC(=O)NC7=O)CC6)C5)CC4)ncc3Cl)ccc2n(C(C)C)c1=O (stereo partly shown) [Compound 3, 2-({6-[(5-chloro-2-{4-[(1r,3r)-3-{4-[1-(2,6-dioxopiperidin-3-yl)-3-methyl-2-oxo-2,3-dihydro-1H-1,3-benzodiazol-5-yl]piperazin-1-yl}cyclobutoxy]piperidin-1-yl}pyrimidin-4-yl)amino]-2-oxo-1-(propan-2-yl)-1,2-dihydroquinolin-3-yl}oxy)-N-methylacetamide]	< 0.01	≥ 70
CNC(=O)COc1cc2cc(Nc3nc(N4CCC(O[C@H]5C[C@H](N6CCN(c7ccc8c(c7)ncn8C7CCC(=O)NC7=O)CC6)C5)CC4)ncc3Cl)ccc2n(C(C)C)c1=O (stereo partly shown) [Compound 23]	< 0.01	50 to 70
CCn1c(=O)n(C2CCC(=O)NC2=O)c2ccc(N3CCN([C@H]4C[C@H](OC5CCN(c6ncc(Cl)c(Nc7ccc8c(c7)cc(OCC(=O)NC)c(=O)n8C(C)C)n6)CC5)C4)CC3)cc21 (stereo partly shown) [Compound 7]	< 0.01	≥ 70
CNC(=O)COc1cc2cc(Nc3nc(N4CCC(O[C@H]5C[C@H](N6CCN(c7ccc8c(ccn8C8CCC(=O)NC8=O)c7)CC6)C5)CC4)ncc3Cl)ccc2n(C(C)C)c1=O (stereo partly shown) [Compound 17, 2-({6-[(5-chloro-2-{4-[(1r,3r)-3-{4-[1-(2,6-dioxopiperidin-3-yl)-1H-indol-5-yl]piperazin-1-yl}cyclobutoxy]piperidin-1-yl}pyrimidin-4-yl)amino]-2-oxo-1-(propan-2-yl)-1,2-dihydroquinolin-3-yl}oxy)-N-methylacetamide]	< 0.01	≥ 70
CNC(=O)COc1cc2cc(Nc3nc(N4CCC(O[C@H]5C[C@H](N6CCN(c7ccc8c(c7Cl)[C@@H](C)N([C@@H]7CCC(=O)NC7=O)C8=O)[C@H](C)C6)C5)CC4)ncc3Cl)ccc2n(C(C)C)c1=O (single isomer, unassigned) [Compound 33]	< 0.01	≥ 70
CNC(=O)COc1cc2cc(Nc3nc(N4CCC(O[C@H]5C[C@H](N6CCN(c7cccc8c7n(C)c(=O)n8C7CCC(=O)NC7=O)CC6)C5)CC4)ncc3Cl)ccc2n(C(C)C)c1=O (stereo partly shown) [Compound 2, 2-({6-[(5-chloro-2-{4-[(1r,3r)-3-{4-[1-(2,6-dioxopiperidin-3-yl)-3-methyl-2-oxo-2,3-dihydro-1H-1,3-benzodiazol-4-yl]piperazin-1-yl}cyclobutoxy]piperidin-1-yl}pyrimidin-4-yl)amino]-2-oxo-1-(propan-2-yl)-1,2-dihydroquinolin-3-yl}oxy)-N-methylacetamide]	< 0.01	≥ 70
CNC(=O)COc1cc2cc(Nc3nc(N4CCC(O[C@H]5C[C@H](N6CCN(c7cc(F)c8c(c7)n(C)c(=O)n8C7CCC(=O)NC7=O)CC6)C5)CC4)ncc3Cl)ccc2n(C(C)C)c1=O (stereo partly shown) [Compound 10, 2-({6-[(5-chloro-2-{4-[(1r,3r)-3-{4-[1-(2,6-dioxopiperidin-3-yl)-7-fluoro-3-methyl-2-oxo-2,3-dihydro-1H-1,3-benzodiazol-5-yl]piperazin-1-yl}cyclobutoxy]piperidin-1-yl}pyrimidin-4-yl)amino]-2-oxo-1-(propan-2-yl)-1,2-dihydroquinolin-3-yl}oxy)-N-methylacetamide]	< 0.01	≥ 70
